Tests used:
tracheal epithelium = experiment: Reversal of keratinized squamous metaplastic lesions of vitamin A deficiency in tracheal organ culture; format: cell-based; conditions: for % of Cultures with Keratin and Keratohyaline Granules / % of Cultures with Respective Amounts of Squamous Metaplasia: None / % of Cultures with Respective Amounts of Squamous Metaplasia: Marked / % of Cultures with Respective Amounts of Squamous Metaplasia: Mild / % of Cultures with Respective Amounts of Squamous Metaplasia: Minimal / % of Cultures with Respective Amounts of Squamous Metaplasia: Severe: collected day 10; for % of Cultures with Respective Amounts of Squamous Metaplasia: Marked: marked = 10-40% squamous; for % of Cultures with Respective Amounts of Squamous Metaplasia: Mild: mild = 2-10% squamous; for % of Cultures with Respective Amounts of Squamous Metaplasia: Minimal: minimal = less than 2% squamous; for % of Cultures with Respective Amounts of Squamous Metaplasia: Severe: severe = more than 40% squamous
From the text: N-(4-hydroxyphenyl)-all-trans-retinamide was compared with retinoic acid in an in vitro screening model for identifying retinoids having activity in preventing carcinogenesis in epithelial tissue. The experimental method, which is described in Experimental Lung Cancer:Intern'l Symp, 575-82, 1974, involves reversal of keratinization in tracheal organ culture.
In brief summary, in the absence of retinoic acid or a synthetic retinoid having similar activity, the test organ culture of tracheal epithelium undergoes abnormal differentiation. Addition of small concentrations of retinoic acid (as low as 10^-9 M) will cause reversion to normal tracheal epithelium. Test compounds are compared in activity to retinoic acid or another active standard both as regards squamous metaplasia and keratin production, both of which are measures of abnormal development of the epithelial culture.
In carrying out the tests reported in Table I, all tracheas were cultured for the first 3 days in medium without retinoid. At this time, some tracheas were collected, while the rest were cultured for a further week in medium containing either no retinoid, or retinoid added at the concentrations shown. These tracheas were collected on the 10th day of culture. Cultures were graded as to the percentage of their total epithelium showing squamous metaplasia on eight cross sections from the middle of each trachea. If more than 40% of the total epithelial length was squamous, it was graded as having severe squamous metaplasia; between 10-40% was graded as marked; between 2-10% was graded as mild; and less than 2% was graded as minimal.

[1] = system: MNU-induced mammary cancer; experiment: Inhibition of mammary carcinogenesis induced by N-methyl-N-nitrosourea (MNU), rat breast cancer; format: in vivo, Female Sprague-Dawley rats; conditions: Table III
From the text: On the basis of the encouraging results summarized in the foregoing example, N-(4-hydroxyphenyl)-all-trans-retinamide was compared to retinyl acetate in the experimental assay for efficacy against rat breast cancer described in Nature Vol. 267, pp 620-621 (June 16, 1977), which measures the ability to inhibit mammary carcinogenesis induced by N-methyl-N-nitrosourea (MNU). The results of further extension of the tests, comparing the 4-hydroxyphenyl retinamide only to placebo, after 18 weeks with high dose MNU and 21 weeks with low dose MNU, are set forth in Table III. The results using these two different levels of MNU and two dietary levels of retinoid are shown graphically in FIGS. 1 and 2 after 18 weeks of testing.
Animals: Female Sprague-Dawley rats obtained from ARS Sprague-Dawley.
Crystalline MNU. Rats received 2 I.V. injections at 50 and 57
High dose is 50 mg/kg; low dose 15 mg/kg.
Retinoids were dissolved in solvent and blended into the diets.
placed on diets 3 days after last MNU injection.
50 gm trioctanoin:ethanol (3:1), 0.05 ml Tenox 20, 0.05 ml
50 gm retinoid solvent/kg diet.
High dose is 50 mg/kg; low dose 15 mg/kg. Rats on high dose of
sacrificed after 18 weeks.
Placebo: 50 gm retinoid solvent/kg diet.

LD50 in Swiss mice = conditions: mouse, in vivo
Method: The drug is administered at regular intervals, conveniently at meal times or once daily.

[2] = Accumulation in the liver; format: in vivo; conditions: unlike the natural retinyl esters
epithelial cancer = experiment: Effectiveness in preventing epithelial cancer in mammals; format: in vivo; conditions: at reasonable dose levels
[3] = compared with sunscreening amounts of retinoic acid; U.S. Pat. No. 4,108,880; cited from earlier work
Systemic toxicity = conditions: in vivo
[4] = Target specificity in concentrating at the breast; conditions: in vivo
[5] = Toxicity compared to retinyl acetate; conditions: in vivo
breast cancer = experiment: Prevention of breast cancer in rats, oral dosing; format: in vivo; conditions: oral doses of 32 and 64 mg/kg/day
[6] = system: MNU-induced mammary cancer; experiment: Inhibition of mammary carcinogenesis induced by N-methyl-N-nitrosourea (MNU), rat breast cancer; format: in vivo, Female Sprague-Dawley rats
[7] = U.S. Pat. No. 4,108,880; cited from earlier work
[8] = 18 weeks, MNU high dose (50 mg/kg), 391 mg/kg diet
[9] = 21 weeks, MNU low dose (15 mg/kg), 391 mg/kg diet
[10] = Table II, 73 days, MNU high dose (50 mg/kg), 391 mg/kg diet
[11] = Table II, 73 days, MNU high dose (50 mg/kg), 782 mg/kg diet
[12] = Table II, 73 days, MNU low dose (15 mg/kg), 391 mg/kg diet
[13] = Table II, 73 days, MNU low dose (15 mg/kg), 782 mg/kg diet
[14] = Table II, 73 days, saline, 391 mg/kg diet
[15] = Table II, 73 days, saline, 782 mg/kg diet
[16] = Table III, 18 weeks, MNU high dose (50 mg/kg), 782 mg/kg diet
[17] = Table III, 21 weeks, MNU low dose (15 mg/kg), 782 mg/kg diet
[18] = Table III, saline, 391 mg/kg diet
[19] = Table III, saline, 782 mg/kg diet

CC1=C(/C=C/C(C)=C/C=C/C(C)=C/C(=O)Nc2ccc(O)cc2)C(C)(C)CCC1 [4-Hydroxyphenyl Retinamide, N-(4-hydroxyphenyl)-all-trans-retinamide]
efficacy relative to retinoic acid (tracheal epithelium; 10^-8 M): at least as efficacious as retinoic acid
% of Cultures with Keratin and Keratohyaline Granules (tracheal epithelium; 10^-8 M): 0%
% of Cultures with Respective Amounts of Squamous Metaplasia: None (tracheal epithelium; 10^-8 M): 20%
% of Cultures with Respective Amounts of Squamous Metaplasia: Marked (tracheal epithelium; 10^-8 M): 0%
% of Cultures with Respective Amounts of Squamous Metaplasia: Mild (tracheal epithelium; 10^-8 M): 0%
% of Cultures with Respective Amounts of Squamous Metaplasia: Minimal (tracheal epithelium; 10^-8 M): 80%
% of Cultures with Respective Amounts of Squamous Metaplasia: Severe (tracheal epithelium; 10^-8 M): 0%
efficacy relative to retinoic acid (tracheal epithelium; 10^-9 M): nearly as efficaceous
% of Cultures with Keratin and Keratohyaline Granules (tracheal epithelium; 10^-9 M): 40%
% of Cultures with Respective Amounts of Squamous Metaplasia: None (tracheal epithelium; 10^-9 M): 20%
% of Cultures with Respective Amounts of Squamous Metaplasia: Marked (tracheal epithelium; 10^-9 M): 0%
% of Cultures with Respective Amounts of Squamous Metaplasia: Mild (tracheal epithelium; 10^-9 M): 30%
% of Cultures with Respective Amounts of Squamous Metaplasia: Minimal (tracheal epithelium; 10^-9 M): 20%
% of Cultures with Respective Amounts of Squamous Metaplasia: Severe (tracheal epithelium; 10^-9 M): 30%
efficacy (tracheal epithelium; 10^-10 M): virtually inefficacious
% of Cultures with Keratin and Keratohyaline Granules (tracheal epithelium; 10^-10 M): 100%
% of Cultures with Respective Amounts of Squamous Metaplasia: None (tracheal epithelium; 10^-10 M): 0%
% of Cultures with Respective Amounts of Squamous Metaplasia: Marked (tracheal epithelium; 10^-10 M): 75%
% of Cultures with Respective Amounts of Squamous Metaplasia: Mild (tracheal epithelium; 10^-10 M): 12%
% of Cultures with Respective Amounts of Squamous Metaplasia: Minimal (tracheal epithelium; 10^-10 M): 0%
% of Cultures with Respective Amounts of Squamous Metaplasia: Severe (tracheal epithelium; 10^-10 M): 12%
Mammary Tumor Incidence [1, 8]: 13/16
Mammary Tumor Incidence (%) [1, 8]: 81%
Mammary Tumor Incidence (%) ([1]; 18 weeks, MNU high dose (50 mg/kg), 782 mg/kg diet): 64%
Mammary Tumor Incidence (%) [1, 9]: 12%
Total Number of Tumors [1, 9]: 5
Mammary Tumor Incidence ([1]; saline, 391 mg/kg diet): 0/10
Total Number of Tumors ([1]; saline, 782 mg/kg diet): 0
LD50 (LD50 in Swiss mice; ip): 436 mg/kg
LD50 (LD50 in Swiss mice; po): > 400 mg/kg
accumulation in the liver [2]: does not accumulate in the liver in appreciable amounts
effectiveness in preventing epithelial cancer in mammals (epithelial cancer): good effectiveness in preventing epithelial cancer in mammals
irritating effect on skin [3]: does not have the irritating effect on skin that would be expected from the use of sunscreening amounts of retinoic acid
systemic toxicity (Systemic toxicity): low systemic toxicity
target specificity in concentrating at the breast [4]: adequate target specificity in concentrating at the breast
toxicity relative to retinyl acetate [5]: less toxic
prevention of breast cancer in rats (breast cancer): very effective in preventing breast cancer in rats
efficacy relative to retinyl acetate ([6]; MNU-induced mammary carcinogenesis): substantially as efficacious as retinyl acetate
Mammary Tumor Incidence [6, 10]: 5/16
Mammary Tumor Incidence (%) [6, 10]: 31%
Mammary Tumor Incidence [6, 11]: 0/17
Mammary Tumor Incidence (%) [6, 11]: 0%
Mammary Tumor Incidence [6, 12]: 0/40
Mammary Tumor Incidence (%) [6, 12]: 0%
Mammary Tumor Incidence [6, 13]: 0/39
Mammary Tumor Incidence (%) [6, 13]: 0%
Mammary Tumor Incidence [6, 14]: 0/10
Mammary Tumor Incidence (%) [6, 14]: 0%
Mammary Tumor Incidence [6, 15]: 0/10
Mammary Tumor Incidence (%) [6, 15]: 0%
Total Number of Tumors ([6]; Table III, 18 weeks, MNU high dose (50 mg/kg), 391 mg/kg diet): 48
Mammary Tumor Incidence [6, 16]: 11/17
Total Number of Tumors [6, 16]: 37
Mammary Tumor Incidence ([6]; Table III, 21 weeks, MNU low dose (15 mg/kg), 391 mg/kg diet): 5/40
Mammary Tumor Incidence [6, 17]: 3/39
Mammary Tumor Incidence (%) [6, 17]: 8%
Total Number of Tumors [6, 17]: 4
Mammary Tumor Incidence (%) [6, 18]: 0%
Total Number of Tumors [6, 18]: 0
Mammary Tumor Incidence [6, 19]: 0/10
Mammary Tumor Incidence (%) [6, 19]: 0%
ultraviolet absorption [7]: good ultraviolet absorber
